Marks after values point to notes of the source that are not given here. Ends that are not written are not given here.
Assays:
HCV genotype 1 = assay: 12-week dose ranging study of thymalfasin plus PEG-IFN2a in chronic hepatitis C non-responders: serum HCV RNA, EVR; format: in vivo, patients; details: for Median Reduction HCV RNA (log): week 12
Protocol: The effects of 3 different doses of thymalfasin (TA1) in combination with PEG-IFN2a on week 12 HCV RNA levels and T cell counts was investigated.
(§1) Patients with chronic hepatitis C who were non-responders to previous antiviral therapy were randomized to receive PEG-IFN2a 180 μg/week plus thymalfasin given twice a week by subcutaneous injection (Group 1, 0.8 mg; Group 2, 1.6 mg; Group 3, 3.2 mg). In order to assess effect of thymalfasin on PEG-IFN2a, patients were included only if they were infected with HCV genotype 1 and had serum HCV RNA levels greater than 2 million copies per ml. The effect of therapy was assessed on the reduction in serum HCV RNA after 12 weeks, early virologic response (EVR, proportion which greater than 2 log reduction or negative HCV RNA by the Roche Amplicor assay) and on changes in peripheral CD3 and CD4 lymphocyte counts from baseline (assessed by flow cytometry).
31 patients (26 male) with median age 47 yrs (range 39–58) were enrolled. Four were non-responders to a previous course of standard IFN alone while 27 had previously non responded to standard IFN with ribavirin. All subjects completed 12 weeks of therapy. Six (19%) became negative for HCV RNA on therapy. […] The median reduction in HCV RNA increased with dose with thymosin (Table B).
Patients were randomized into three groups to receive 180 mcg/week of pegylated interferon alpha-2a plus one of three different bi-weekly doses of TA1.

[1] = in vivo
Text: Patients will be monitored for significant side-effects or allergic manifestations possibly resulting from treatment. […] Patients will be educated on the symptoms of severe anaphylactic reactions and informed of appropriate countermeasures.

HCV genotype-1a = assay: Case report, person with hepatitis C: HCV RNA levels; format: in vivo, patient
Protocol: Then it was decided to start PEG Intron at ⅕ mc/kg/w, ribavirin at 12 mg/kg/day and thymosin-alpha-1 at 3.2 mcg BIW SQ, as a second course of treatment.

[2] = system: peripheral CD3 lymphocyte counts; assay: Same study: change in peripheral CD3 lymphocyte counts from baseline (flow cytometry); format: in vivo, patients
Protocol: as §1

[3] = system: peripheral CD4 lymphocyte counts; assay: Same study: change in peripheral CD4 lymphocyte counts from baseline (flow cytometry); format: in vivo, patients
Protocol: as §1

[4] = Group 1: 0.8 mg biw + PEG-IFN2a 180 μg/week
[5] = Group 2: 1.6 mg biw + PEG-IFN2a 180 μg/week
[6] = Group 3: 3.2 mg biw + PEG-IFN2a 180 μg/week

With “thymalfasin: 28 amino acidic polypeptide with a molecular weight of 3100 that has potent immunologic activity; synthetic Tα1 by SciClone (Ac-SDAAVDTSSEITTKDLKEKKEVVEEAEN; UniProt P06454 2-29, looked up)” the “EVR, early virologic response (greater than 2 log reduction or negative HCV RNA)” value (HCV genotype 1; Group 1: 0.8 mg biw + PEG-IFN2a 180 μg/week, 12 weeks, listed as T1) was 20%, the “EVR, early virologic response (greater than 2 log reduction or negative HCV RNA)” value (HCV genotype 1; Group 1: 0.8 mg biw + PEG-IFN2a 180 μg/week, 12 weeks, listed as TA1) was 20% and the “Median Reduction HCV RNA (log)” value (HCV genotype 1; Group 1: T1 0.8 mg biw sc + PEG-IFN2a 180 μg/week, n=10) was 0.57 log. For the same substance, the “EVR, early virologic response (greater than 2 log reduction or negative HCV RNA)” value (HCV genotype 1; Group 2: 1.6 mg biw + PEG-IFN2a 180 μg/week, 12 weeks, listed as T1) was 30%, the “EVR, early virologic response (greater than 2 log reduction or negative HCV RNA)” value (HCV genotype 1; Group 2: 1.6 mg biw + PEG-IFN2a 180 μg/week, 12 weeks, listed as TA1) was 30% and the “Median Reduction HCV RNA (log)” value (HCV genotype 1; Group 2: T1 1.6 mg biw sc + PEG-IFN2a 180 μg/week, n=10, p < 0.01 vs group 1) was 0.97* log. For the same substance, the “EVR, early virologic response (greater than 2 log reduction or negative HCV RNA)” value (HCV genotype 1; Group 3: 3.2 mg biw + PEG-IFN2a 180 μg/week, 12 weeks, listed as T1) was 36%, the “EVR, early virologic response (greater than 2 log reduction or negative HCV RNA)” value (HCV genotype 1; Group 3: 3.2 mg biw + PEG-IFN2a 180 μg/week, 12 weeks, listed as TA1) was 36% and the “Median Reduction HCV RNA (log)” value (HCV genotype 1; Group 3: T1 3.2 mg biw sc + PEG-IFN2a 180 μg/week, n=11, p < 0.005 vs group 1) was 1.09** log. For the same substance, the “Patients who became negative for HCV RNA on therapy” value (HCV genotype 1; all 31 patients, all three dose groups, with PEG-IFN2a, 12 weeks) was 19%, the “local or systemic side effects” value [1] was “no local or systemic side effects have been observed” and the “HCV RNA by TMA” value (HCV genotype-1a; 1 and 3 months after stopping 12 months of PEG Intron + ribavirin + thymosin-alpha-1) was “negative”. For the same substance, the “HCV RNA blood levels by TMA” value (HCV genotype-1a; PEG Intron ⅕ mc/kg/w + ribavirin 12 mg/kg/day + thymosin-alpha-1 3.2 mcg BIW SQ, month 1, 3, 6 and 12) was “less than 5 IU/mL”, the “CD3+ change from baseline” value [2, 4] was 0% and the “CD3+ change from baseline” value [2, 5] was “+8.3%”. For the same substance, the “CD3+ change from baseline” value [2, 6] was “+7.5%”, the “CD4+ change from baseline” value [3, 4] was −0.2% and the “CD4+ change from baseline” value [3, 5] was “+14.8%”. For the same substance, the “CD4+ change from baseline” value [3, 6] was “+8.8%”.
